Data from US7037905B2, “Pharmaceutical use of boronic acids and esters thereof” (Novo Nordisk A/S, priority 2002, dated 2006).

What follows are compounds tested against T1, hormone sensitive lipase (Homo sapiens, UniProt Q05469) (assay: TEST 3190.1 HSL-FL: percent inhibition of hormone sensitive lipase at 10 μM, fluorochrome-labeled triacylglyceride emulsion). Conditions: 10 μM sample concentration; percent activity relative to a non-inhibited sample; 30 min preincubation 25° C., 120 min at 37° C.
T1 sequence (Q05469 1-1076): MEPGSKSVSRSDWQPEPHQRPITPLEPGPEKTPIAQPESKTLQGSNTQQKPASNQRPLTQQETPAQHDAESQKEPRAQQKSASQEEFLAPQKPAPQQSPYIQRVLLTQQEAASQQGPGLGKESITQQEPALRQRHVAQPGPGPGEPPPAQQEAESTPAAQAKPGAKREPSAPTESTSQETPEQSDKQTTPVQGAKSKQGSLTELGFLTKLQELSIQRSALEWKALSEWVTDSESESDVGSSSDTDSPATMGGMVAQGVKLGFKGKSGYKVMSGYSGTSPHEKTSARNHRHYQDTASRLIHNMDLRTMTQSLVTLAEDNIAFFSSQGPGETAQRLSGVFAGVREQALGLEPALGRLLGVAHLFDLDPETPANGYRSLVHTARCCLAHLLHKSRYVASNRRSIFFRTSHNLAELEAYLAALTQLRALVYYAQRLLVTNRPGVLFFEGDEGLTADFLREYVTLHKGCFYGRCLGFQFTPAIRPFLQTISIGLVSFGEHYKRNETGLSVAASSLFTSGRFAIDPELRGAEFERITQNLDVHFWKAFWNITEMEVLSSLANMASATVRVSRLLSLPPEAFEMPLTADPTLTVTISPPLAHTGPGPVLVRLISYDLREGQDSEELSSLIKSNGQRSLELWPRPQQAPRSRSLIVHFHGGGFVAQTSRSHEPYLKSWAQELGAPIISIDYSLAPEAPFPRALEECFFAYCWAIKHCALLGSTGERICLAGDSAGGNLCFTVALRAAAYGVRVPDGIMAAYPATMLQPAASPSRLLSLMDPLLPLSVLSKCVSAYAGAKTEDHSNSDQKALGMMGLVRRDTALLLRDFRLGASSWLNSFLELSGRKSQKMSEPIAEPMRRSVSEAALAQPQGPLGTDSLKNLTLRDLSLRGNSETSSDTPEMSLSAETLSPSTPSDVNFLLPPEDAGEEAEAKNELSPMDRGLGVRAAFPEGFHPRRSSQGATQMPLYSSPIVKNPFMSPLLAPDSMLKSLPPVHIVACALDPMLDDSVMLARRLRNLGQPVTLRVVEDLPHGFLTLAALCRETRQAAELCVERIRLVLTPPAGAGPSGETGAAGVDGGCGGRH
Type: biochemical
Method: 3190.1: Assay for determination of percent inhibition of hormone sensitive lipase by compound at 10 μM sample concentration.
A lipid emulsion with fluorochrome-labeled triacylglyceride and phospholipid is used as substrate with a standard concentration of highly purified HSL (12 μg/mL initial concentration corresponding to 600 ng/mL final concentration). BSA is added as product receptor. The transfer of the fluorochrome from the lipid phase to the water (BSA) phase changes the fluorescent properties of the fluorochrome. The changes can be monitored on a fluorimeter with an excitation wavelength of 450 nm and an emission wavelength of 545 nm.
Compound and HSL (2 μL compound, 10 μL enzyme and 70 μL PED-BSA buffer) is pre-incubated for 30 min at 25° C. before addition of substrate (100 μL). Amount of formed product is measured after 120 min incubation at 37° C.
Results are given as percent activity relative to a non-inhibited sample (no compound).

| SMILES | activity at 10 µM |
| --- | --- |
| CC1(C)OB(c2cccc(OC(F)(F)F)c2)OC1(C)C [Example 27, 4,4,5,5-Tetramethyl-2-(3-trifluoromethoxyphenyl)-[1,3,2]dioxaborolane] | 29% |
| Cc1csc(B2OCCNCCO2)c1 [Example 16, 2-(4-Methylthiophen-2-yl)-[1,3,6,2]dioxazaborocane] | 61% |
| Clc1ccc(B2OCCNCCO2)s1 [Example 3, 2-(5-Chlorothiophen-2-yl)-[1,3,6,2]dioxazaborocane] | 19% |
| OB(O)c1ccc(Cl)c(Cl)c1 [Example 74, 3,4-Dichlorophenylboronic acid] | 53% |
| CC1(C)OB(c2ccc(Cl)s2)OC1(C)C [Example 1, 2-(5-Chlorothiophen-2-yl)-4,4,5,5-tetramethyl-[1,3,2]dioxaborolane] | 17% |
| COc1ccc(Cl)cc1B1OCCNCCO1 [Example 12, 2-(5-Chloro-2-methoxyphenyl)-[1,3,6,2]dioxazaborocane] | 39% |
| O=Cc1cccc(B(O)O)c1 [Example 76, 3-Formylphenylboronic acid] | 80% |
| Clc1cccc(B2OCCNCCO2)c1 [Example 6, 2-(3-Chlorophenyl)-[1,3,6,2]dioxazaborocane] | 36% |
| Fc1cccc(B2OCCNCCO2)c1 [Example 7, 2-(3-Fluorophenyl)-[1,3,6,2]dioxazaborocane] | 80% |
| Fc1ccc(B2OCCNCCO2)cc1Cl [Example 15, 2-(3-Chloro-4-fluorophenyl)-[1,3,6,2]dioxazaborocane] | 39% |
| Clc1cc(Cl)cc(B2OCCNCCO2)c1 [Example 14, 2-(3,5-Dichlorophenyl)-[1,3,6,2]dioxazaborocane] | 40% |
| CC1(C)COB(c2ccc(F)c(Cl)c2)OC1 [Example 22, 2-(3-Chloro-4-fluorophenyl)-5,5-dimethyl-[1,3,2]dioxaborinane] | 31% |
| CC1(C)COB(c2ccc(Cl)s2)OC1 [Example 2, 2-(5-Chlorothiophen-2-yl)-5,5-dimethyl-[1,3,2]dioxaborinane] | 17% |
| CC1(C)COB(c2cccc(Cl)c2)OC1 [Example 10, 2-(3-Chlorophenyl)-5,5-dimethyl-[1,3,2]dioxaborinane] | 39% |
| CC1(C)COB(c2cccc(F)c2)OC1 [Example 23, 2-(3-Fluorophenyl)-5,5-dimethyl-[1,3,2]dioxaborinane] | 46% |
| CC1(C)OB(c2cccc(Br)c2)OC1(C)C [Example 25, 2-(3-Bromophenyl)-4,4,5,5-tetramethyl-[1,3,2]dioxaborolane] | 28% |
| Fc1cc(F)cc(B2OCCNCCO2)c1 [Example 4, 2-(3,5-Difluorophenyl)-[1,3,6,2]dioxazaborocane] | 32% |
| FC(F)(F)Oc1cccc(B2OCCNCCO2)c1 [Example 13, 2-(3-Trifluoromethoxyphenyl)-[1,3,6,2]dioxazaborocane] | 26% |

| SMILES | activity at 10 µM |
| --- | --- |
| OB(O)c1ccc2[nH]ccc2c1 [Example 75, 5-INDOLYL BORONIC ACID] | 100% |
| CC1(C)COB(c2cc(F)c(F)c(F)c2)OC1 [Example 19, 5,5-Dimethyl-2-(3,4,5-trifluorophenyl)-[1,3,2]dioxaborinane] | 49% |
| CC1(C)OB(c2ccc(F)c(Cl)c2)OC1(C)C [Example 29, 2-(3-Chloro-4-fluorophenyl)-4,4,5,5-tetramethyl-[1,3,2]dioxaborolane] | 36% |
| CC1(C)COB(c2cccc(C(F)(F)F)c2)OC1 [Example 11, 5,5-Dimethyl-2-(3-trifluoromethylphenyl)-[1,3,2]dioxaborinane] | 31% |
| CC1(C)COB(c2cc(Cl)cc(Cl)c2)OC1 [Example 21, 2-(3,5-Dichlorophenyl)-5,5-dimethyl-[1,3,2]dioxaborinane] | 42% |
| CC1(C)COB(c2cccc(OC(F)(F)F)c2)OC1 [Example 20, 5,5-Dimethyl-2-(3-trifluoromethoxyphenyl)-[1,3,2]dioxaborinane] | 27% |
| Brc1cccc(B2OCCNCCO2)c1 [Example 5, 2-(3-Bromophenyl)-[1,3,6,2]dioxazaborocane] | 34% |
| COc1ccc(Cl)cc1B1OCC(C)(C)CO1 [Example 18, 2-(5-Chloro-2-methoxyphenyl)-5,5-dimethyl-[1,3,2]dioxaborinane] | 43% |
| CC1(C)OB(c2cccc(Cl)c2)OC1(C)C [Example 30, 2-(3-Chlorophenyl)-4,4,5,5-tetramethyl-[1,3,2]dioxaborolane] | 40% |
| Cc1csc(B2OCC(C)(C)CO2)c1 [Example 24, 5,5-Dimethyl-2-(4-methylthiophen-2-yl)-[1,3,2]dioxaborinane] | 58% |
| Cc1csc(B2OC(C)(C)C(C)(C)O2)c1 [Example 32, 4,4,5,5-Tetramethyl-2-(4-methylthiophen-2-yl)-[1,3,2]dioxaborolane] | 52% |
| FC(F)(F)c1cccc(B2OCCNCCO2)c1 [Example 8, 2-(3-Trifluoromethylphenyl)-[1,3,6,2]dioxazaborocane] | 29% |
| CN(C)C(=O)c1ccc(B(O)O)cc1 [Example 77, 4-(N,N-DIMETHYLCARBAMOYL)PHENYLBORONIC ACID] | 98% |
| Fc1cc(B2OCCNCCO2)cc(F)c1F [Example 9, 2-(3,4,5-Trifluorophenyl)-[1,3,6,2]dioxazaborocane] | 32% |
| CC1(C)OB(c2cc(Cl)cc(Cl)c2)OC1(C)C [Example 28, 2-(3,5-Dichlorophenyl)-4,4,5,5-tetramethyl-[1,3,2]dioxaborolane] | 43% |
| CC1(C)COB(c2cccc(Br)c2)OC1 [Example 17, 2-(3-Bromophenyl)-5,5-dimethyl-[1,3,2]dioxaborinane] | 11% |
| CC1(C)OB(c2cccc(C(F)(F)F)c2)OC1(C)C [Example 31, 4,4,5,5-Tetramethyl-2-(3-trifluoromethylphenyl)-[1,3,2]dioxaborolane] | 27% |
